According to EP0189755A1, “Pharmaceutical composition” (F. HOFFMANN-LA ROCHE AG, priority 1985, dated 1986):

Experiments:
P388 leukemia cells = assay: Antitumor effects against intraperitoneally implanted P388 leukemia in mice (increase in life span, survival, body weight); settings: for dose ILS30: dose of 5'-DFUR or 5-FU giving ILS30; for dose ILS30 / dose ILSmax: GMP 100 mg/kg/day in the combinations, unit not given in Table 4; for dose ILSmax: dose of 5'-DFUR or 5-FU giving ILSmax
Method: BDF1 male mice weighing 21 to 23 g were used as experimental animals. P388 leukemia cells were implanted intraperitoneally into the mice. Seven days after the implantation, ascites were collected and diluted with saline to prepare the suspension containing 10^6 P388 leukemia cells in 0.05 ml. The mice were intraperitoneally implanted on day 0 with 10^6 P388 cells. Each group contained 6 mice. 5'-DFUR and GMP were dissolved in saline, alone or combined with each other. The test compounds were administered intraperitoneally from day 1 to day 5. The antitumor effects were evaluated by the increase in life span over control (ILS) calculated by the following formula: [formula] T: Mean survival time (days) in the test drug groups C: Mean survival time (days) in the control group administered intraperitoneally with saline alone
The safety of the drug was evaluated by the therapeutic ratio; the dose ILSmax / the dose ILS30.
In a manner analogous to that described in (1) above except that 5'-DFCR was used instead of 5'-DFUR, the antitumor effects thereof was tested as a referential example.

Acute toxicity = type: in vivo, male ICR mice
Method: Groups of 5 weeks old male ICR mice were treated intraperitoneally with 5'-DFUR and GMP at the dosage given in the- following Table 6. Each mice group contained 5 mice. Two weeks after, the number of died mice were counted.

[1] = 5'-DFCR 28 mg/kg/day, without GMP
[2] = 5'-DFCR 55 mg/kg/day, without GMP
[3] = 5'-DFCR 110 mg/kg/day, without GMP
[4] = 5'-DFCR 220 mg/kg/day, without GMP

## C[C@H]1O[C@@H](n2cc(F)c(N)nc2=O)[C@H](O)[C@@H]1O [5'-DFCR]
P388 leukemia cells; [1]
  Survival days (mean±SD): 10.7 ± 1.5 days
  T/C: 111%
P388 leukemia cells; [2]
  Survival days (mean±SD): 10.0 ± 1.7 days
  T/C: 104%
P388 leukemia cells; [3]
  Survival days (mean±SD): 10.3 ± 0.5 days
  T/C: 107%
P388 leukemia cells; [4]
  Survival days (mean±SD): 12.0 ± 1.7 days
  T/C: 125%

## C[C@H]1O[C@@H](n2cc(F)c(=O)[nH]c2=O)[C@H](O)[C@@H]1O [5'-DFUR, 5'-deoxy-5-fluorouri-dine]
P388 leukemia cells; 5'-DFUR 250 mg/kg/day
  Survival days (mean±SD): 13.3 ± 0.8 days
  T/C: 139%
P388 leukemia cells; 5'-DFUR alone 2 mg/kg/day i.p., day 1 to day 5
  ILS: 0%
P388 leukemia cells; 5'-DFUR alone 4 mg/kg/day i.p., day 1 to day 5
  ILS: 1%
P388 leukemia cells; 5'-DFUR alone 8 mg/kg/day i.p., day 1 to day 5
  ILS: 8%
P388 leukemia cells; 5'-DFUR alone 16 mg/kg/day i.p., day 1 to day 5
  ILS: 15%
P388 leukemia cells; 5'-DFUR alone 32 mg/kg/day i.p., day 1 to day 5
  ILS: 21%
P388 leukemia cells; 5'-DFUR alone 63 mg/kg/day i.p., day 1 to day 5
  ILS: 21%
P388 leukemia cells; 5'-DFUR alone 125 mg/kg/day i.p., day 1 to day 5
  ILS: 31%
P388 leukemia cells; 5'-DFUR alone 250 mg/kg/day i.p., day 1 to day 5
  ILS: 48%
P388 leukemia cells; 5'-DFUR alone 500 mg/kg/day i.p., day 1 to day 5
  ILS: 24%
P388 leukemia cells
  dose ILS30: 125
  dose ILSmax: 250
P388 leukemia cells; dose series of 5'-DFUR i.p., GMP at 100 mg/kg/day in the combination group
  ILSmax: 48%
Acute toxicity; mouse, in vivo
  number of died mice/number of tested mice: 0/5

## O=c1[nH]cc(F)c(=O)[nH]1 [5-FU, 5-fluorouracil]
P388 leukemia cells
  dose ILS30: 0.75
  dose ILSmax: 20

## Nc1ncnc2c1ncn2[C@@H]1O[C@H](COP(=O)(O)O)[C@@H](O)[C@H]1O [AMP, adenosine-5'-monophosphate]
P388 leukemia cells; nucleotide alone 100 mg/kg/day
  Survival days (mean±SD): 9.5 ± 1.9 days
  T/C: 99%

## Nc1nc2c(ncn2[C@@H]2O[C@H](COP(=O)(O)O)[C@@H](O)[C@H]2O)c(=O)[nH]1 [GMP, guanosine-5'-monophosphate]
P388 leukemia cells; GMP alone 100 mg/kg/day i.p. (5'-DFUR 0)
  ILS: -3%
P388 leukemia cells; GMP alone 300 mg/kg/day i.p. (5'-DFUR 0)
  ILS: 5%
P388 leukemia cells; GMP alone 500 mg/kg/day i.p. (5'-DFUR 0)
  ILS: 8%
P388 leukemia cells; GMP alone 1000 mg/kg/day i.p. (5'-DFUR 0)
  ILS: 1%
P388 leukemia cells; GMP alone (Table 3)
  influence on ILS: no influence observed
P388 leukemia cells; nucleotide alone 100 mg/kg/day
  Survival days (mean±SD): 8.8 ± 0.8 days
  T/C: 92%
Acute toxicity; GMP 2000 mg/kg, 5'-DFUR 0, intraperitoneally, counted two weeks after
  number of died mice/number of tested mice: 0/5
Acute toxicity; GMP 4000 mg/kg, 5'-DFUR 0, intraperitoneally, counted two weeks after
  number of died mice/number of tested mice: 1/5
